Assay [1] deals with T1, PD-⅟PD-L1 (recombinant human PD-L1 protein and human PD-1 protein) (Homo sapiens, UniProt Q9NZQ7).
T1 construct: Recombinant human PD-L1 protein (19-238) with a His-tag at the C-terminus; purchased AcroBiosystems PD1-H5229 (PD-L1); PD1-H5257 (PD-1)
Nature of the assay: Homogeneous Time-Resolved Fluorescence (HTRF) PD-1/PD-L1 binding assay. Particulars: 3 nM PD1, 10 nM PD-L1, 25° C., PBS pH 7.4. The method, then:
Homogeneous Time-Resolved Fluorescence (HTRF) PD-⅟PD-L1 Binding Assay
The assays were conducted in a standard black 384-well polystyrene plate with a final volume of 20 uL. Inhibitors were first serially diluted in DMSO and then added to the plate wells before the addition of other reaction components. The final concentration of DMSO in the assay was 1%. The assays were carried out at 25° C. in the PBS buffer (pH 7.4) with 0.05% Tween-20 and 0.1% BSA. […] PD-L1 and PD-1 proteins were diluted in the assay buffer and 10 uL was added to the plate well. Plates were centrifuged and proteins were preincubated with inhibitors for 40 minutes. The incubation was followed by the addition of 10 uL of HTRF detection buffer supplemented with Europium cryptate-labeled anti-human IgG (PerkinElmer-AD0212) specific for Fc and anti-His antibody conjugated to SureLight®-Allophycocyanin (APC, PerkinElmer-AD0059H). […] Final concentrations in the assay were - 3 nM PD1, 10 nM PD-L1, 1 nM europium anti-human IgG and 20 nM anti-His-Allophycocyanin. IC50 determination was performed by fitting the curve of percent control activity versus the log of the inhibitor concentration using the GraphPad Prism 5.0 software.
(In general: TR-FRET usually uses a lanthanide donor and a delayed reading to cut background.)

Assay [2] deals with PD-L1 (PD-L1 aAPC/CHO-K1 cells, Jurkat-PD-1-NFAT effector cells). Nature of the assay: Nuclear Factor of Activated T-cells (NFAT) assay. The assay is classed as cell-based. The following applies: Cricetulus griseus; PD-L1 aAPC/CHO-K1 + Jurkat-PD-1-NFAT cells, 24 hours. As to the method: Nuclear Factor of Activated T-cells (NFAT) Assay
PD-L1 aAPC/CHO-K1cells (Promega) were maintained in F-12 medium with addition of 10% FBS, 200 µg/mL Hygromycin B, 250 µg/mL Geneticin (G418). […] The culture media of PD-L1 aAPC/CHO-K1 cells were first replaced with assay medium (RPMI1640 medium with 1% FBS). The PD-L1 aAPC/CHO-K1cells were then added in a white 384-well white clear bottom assay plate (CELLCOAT® Tissue Culture Plates, Greiner Bio-One) at 8000 per well in 10 uL assay medium. […] 5 uL compounds in the assay medium were transferred to the cells with 0.4% DMSO in the final assay at 2 µM. After removing the culture media, 10,000 Jurkat-PD-1-NFAT effector cells in 5 µL assay medium was dispensed into each well. The assay plate was incubated at 37° C., 5% CO2 for 24 hours. […] After 8 minutes incubation at room temperature, luminescence was read at with Pherastar microplate reader (BMG Labtech). The fold of induction (FOI) was calculated based on the ratio of luminescence normalized to the DMSO wells within each assay plate. The maximum percentage of induction was reported based on the ratio between the highest FOI of each compound and the maximum FOI of control compound within each assay plate. Wells with DMSO were served as the negative controls and wells containing control compound with the highest FOI were used as positive controls. EC50 determination was performed by fitting the curve of percent control activity versus the log of the compound concentration using the GraphPad Prism 6.0 software.

Assay [3] concerns PD-L1 (U2OS/PD-L1 cells, Jurkat-PD-1-SHP cells). Nature of the assay: Src Homology Region 2 Domain-containing Phosphatase (SHP) assay. It is filed as cell-based. The following applies: Homo sapiens; U2OS/PD-L1 + Jurkat-PD-1-SHP cells, 2 hours. The method, then: Example 1B. Src Homology Region 2 Domain-containing Phosphatase (SHP) Assay
U2OS/PD-L1 cells (DiscoveRx Corporation) were maintained in McCoy’s 5A medium with addition of 10% FBS, 0.25 µg/mL Puromycin. After removing the culture media, the cell medium was replaced with assay medium (RPMI1640 medium with 1% FBS). The U2OS/PD-L1 cells were then added in 384-well black clear bottom assay plate (CELLCOAT® Tissue Culture Plates, Greiner Bio-One) at 5000 cells per well in 20 uL assay medium. Test compounds were prepared by serial dilution in DMSO and 125 nL compound were first transferred to the 384 REMP plate well (Thermofisher) by ECHO liquid handler (Labcyte) followed with addition of 27.5 uL assay medium. 5 µL/well compounds in the assay medium were transferred to the cell plate with 0.05% DMSO in the final assay at 0.25 µM. Jurkat-PD-1-SHP cells (DiscoveRx Corporation) were cultured in RPMI1640 medium supplemented with 10% FBS, 250 µg/mL Hygromycin B, 500 µg/mL G418. After the replacement of culture media with assay medium, 5,000 Jurkat-PD-1-SHP cells in 20 µL were dispensed into each well. The assay plate was incubated at 37° C., 5% CO2 for 2 hours before 2.5 uL PathHunter reagent 1 (DiscoveRx Corporation) were added to each well. The assay plate was shaken for 1 min at 350 rpm in the dark followed with addition of 10 uL PathHunter reagent 2 (DiscoveRx Corporation). Chemiluminescent signal was recorded with TopCount reader (Perkin Elmer) after incubation at room temperature for 1 hour. Wells with DMSO were served as the positive controls and wells containing no cells were used as negative controls. IC50 determination was performed by fitting the curve of percentage of control activity versus the log of the compound concentration using the GraphPad Prism 6.0 software.

The target of assay [4] is T2, PD-L1 on CD14+ cells in human whole blood (Homo sapiens, UniProt Q9NZQ7).
T2 construct: Cells were gated on CD14+ (BD Biosciences) and PD-L1 expression determined by mean fluorescence intensity; host or cells: CD14+ cells in normal human whole blood, stimulated with human interferon gamma
T2 sequence (Q9NZQ7 19-290): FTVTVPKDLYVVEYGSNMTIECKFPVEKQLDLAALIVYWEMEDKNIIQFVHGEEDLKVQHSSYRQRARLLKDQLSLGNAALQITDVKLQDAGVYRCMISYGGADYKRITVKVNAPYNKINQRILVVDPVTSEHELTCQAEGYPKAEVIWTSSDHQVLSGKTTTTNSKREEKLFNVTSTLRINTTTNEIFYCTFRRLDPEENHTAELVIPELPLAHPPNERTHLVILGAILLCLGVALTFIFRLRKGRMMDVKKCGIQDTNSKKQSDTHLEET
Nature of the assay: PD-L1 whole blood internalization assay. It is filed as cell-based. The following applies: 1 ng/mL interferon γ, CD14+ gated, 24 hour. The method, then: PD-L1 Whole Blood Internalization Assay
To determine PD-L1 internalization in human whole blood, normal human blood (Biological Specialty Corp, Colmar. PA) was incubated in the presence or absence of a concentration range of test compounds and 1 ng/mL human interferon γ (R&D Systems Inc. Minn. MN) in a 96 well “2 mL Assay Block” (Corning, Corning NY) for 18-20 hours at 37 °C. Blood was then stained with PD-L1 (MIH1, eBioscience; or BD Biosciences San Jose, CA), CD14 (Life Technologies, Carlsbad, CA) for 30 minutes in the dark at room temperature. Whole Blood/red cells were lysed/fixed (lysis buffer BD Biosciences) for 5 minutes at 37 °C in the dark and then centrifuged at 1600 RPM for 5 minutes. Cells were resuspended in Stain Buffer (BD Bioscience, San Jose, CA) and transferred into 96 well round bottom plates (Coming). Cells were gated on CD14+ (BD Biosciences) and PD-L1 expression determined by mean fluorescence intensity (MFI) (BD LSRFortessa® X-20). IC50 determination was performed by fitting the curve of compound percent inhibition versus the log of the compound concentration using the GraphPad Prism 7.0 software.

T1 sequence (Q9NZQ7 19-238): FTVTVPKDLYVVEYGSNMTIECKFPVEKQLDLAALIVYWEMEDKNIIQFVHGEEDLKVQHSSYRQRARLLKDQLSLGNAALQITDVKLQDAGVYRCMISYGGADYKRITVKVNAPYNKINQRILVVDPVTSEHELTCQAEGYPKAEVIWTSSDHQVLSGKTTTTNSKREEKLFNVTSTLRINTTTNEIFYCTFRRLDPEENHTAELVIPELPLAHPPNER

`Cc1c(-c2nc3c(Cl)cc(CNCCO)cn3n2)cccc1-c1cccc(NC(=O)c2ccc(CNCCO)cn2)c1Cl` [Compound 2, N-(2-chloro-3′-(8-chloro-6-((2-hydroxyethylamino)methyl)-[1,2,4]triazolo[1,5-a]pyridin-2-yl)-2′-methylbiphenyl-3-yl)-5-((2-hydroxyethylamino)methyl)picolinamide]: the figures for the half-maximal inhibitory concentration (IC50) in assay [1] and in assay [3] were under 10 nM and under 100 nM, respectively. Also, the EC50 (commonly the midpoint of the concentration-response curve) in assay [2] is under 500 nM.
As for `Cc1c(NC(=O)c2ccc(CNCCO)cn2)cccc1-c1cccc(NC(=O)c2ccc(CNCCO)cn2)c1Cl` [Compound 7, N,N′-(2-chloro-2′-methylbiphenyl-3,3′-diyl)bis(5-((2-hydroxyethylamino)methyl)picolinamide)], the half-maximal inhibitory concentration (IC50) in assay [1], in assay [3] and in assay [4] was under 10 nM throughout. The EC50 in assay [2] is under 100 nM.
For the compound `Cc1c(NC(=O)c2ccc(CN3CCC(C(=O)O)CC3)cn2)cccc1-c1cccc(NC(=O)c2ccc(CN3CC[C@@H](O)C3)cn2)c1Cl` [Compound 8, (R)-1-((6-(2′-chloro-3′-(5-((3-hydroxypyrrolidin-1-yl)methyl)picolinamido)-2-methylbiphenyl-3-ylcarbamoyl)pyridin-3-yl)methyl)piperidine-4-carboxylic acid], the figures for the concentration for half-maximal inhibition (IC50) in assay [1] and in assay [3] were under 10 nM and under 100 nM, respectively. The concentration giving a half-maximal response (EC50) in assay [2] was under 100 nM.
Consider `Cc1cc(C(=O)Nc2cccc(-c3cccc(NC(=O)c4ccc(CN5CCCC5)cn4)c3Cl)c2C)ncc1CN1CCCC[C@H]1C(=O)O` [Compound 9, (S)-1-((6-((2′-chloro-2-methyl-3′-(5-(pyrnolidin-1-ylmethyl)picolinamido)-[1,1′-biphenyl]-3-yl)carbamoyl)-4-methylpyridin-3-yl)methyl)piperidine-2-carboxylic acid], for which the IC50 in assay [1] and in assay [3] was under 10 nM each time. The 50% effective concentration (EC50) in assay [2] was under 100 nM.
Consider `Cc1c(Nc2nccc3cc(CN4CC[C@@H](O)C4)cnc23)cccc1-c1cccc(NC(=O)c2nc3c(n2C)CCN(CC[C@H]2CC[C@H](C(=O)O)CC2)C3)c1Cl` [Compound 10, trans 4-(2-(2-(2-chloro-3′-(3-(((R)-3-hydroxypyrrolidin-1-yl)methyl)-1,7-naphthyridin-8-ylamino)-2′-methylbiphenyl-3-ylcarbamoyl)-1-methyl-6,7-dihydro-1H-imidazo[4,5-c]pyridin-5(4H)-yl)ethyl)cyclohexanecarboxylic acid], for which the IC50 (in general, the midpoint of a concentration-inhibition curve) in assay [1] was under 10 nM; in assay [3], under 10 nM; in assay [4], under 100 nM. In addition, in assay [2], the EC50 is under 100 nM.
In the case of `Cc1c(Nc2ncnc3cc(CN4CC[C@@H](O)C4)cnc23)cccc1-c1cccc(NC(=O)c2nc3c(n2C)CCN(C2CCC(C)(C(=O)O)CC2)C3)c1Cl` (stereo partly drawn) [Compound 12], the IC50 is under 10 nM in assay [1], under 10 nM in assay [3] and under 100 nM in assay [4]. In addition, the EC50 in assay [2] is under 100 nM.
Consider `Cc1c(NC(=O)c2nc3c(n2C)CCN(C[C@H]2CC[C@H](C(=O)O)CC2)C3)cccc1-c1cccc(NC(=O)c2nc3c(n2C)CCN(C)C3)c1Cl` [Compound 15, trans-4-((2-(2′-chloro-3′-(1,5-dimethyl-4,5,6,7-tetrahydro-1H-imidazo[4,5-c]pyfidine-2-caiboxamido)-2-methylbiphenyl-3-ylcarbamoyl)-1-methyl-6,7-dihydro-1H-imidazo[4,5-c]pyridin-5(4H)-yl)methyl)cyclohexane-1-carboxylic acid], for which the figures for the IC50 in assay [1], in assay [3] and in assay [4] were under 10 nM, under 10 nM and under 500 nM, respectively. For the same compound, in assay [2], the half-maximal effective concentration (EC50) is under 100 nM.
`Cc1c(NC(=O)c2nc3c(n2C)CCN(CC[C@H]2CC[C@H](C(=O)O)CC2)C3)cccc1-c1cccc(NC(=O)c2nc3c(n2C)CCN(C)C3)c1Cl` [Compound 16, trans-4-(2-(2-((2′-chloro-3′-(1,5-dimethyl-4,5,6,7-tetrahydro-1H-imidazo[4,5-c]pyfidine-2-caiboxamido)-2-methyl-[1,1′-biphenyl]-3-yl)caibamoyl)-1-methyl-1,4,6,7-tetrahydro-5H-imidazo[4,5-c]pyridin-5-yl)ethyl)cyclohexane-1-carboxylic acid]: the figures for the IC50 in assay [1], in assay [3] and in assay [4] were under 10 nM, under 10 nM and under 100 nM, respectively. Further, the EC50 in assay [2] was under 100 nM.
As to `Cc1c(NC(=O)c2nc3c(n2C)CCN(C[C@H]2CC[C@@H](C(=O)O)CC2)C3)cccc1-c1cccc(NC(=O)c2nc3c(n2C)CCN(C)C3)c1Cl` [Compound 17, cis-4-((2-((2′-chloro-3′-(1,5-dimethyl-4,5,6,7-tetrahydro-1H-imidazo[4,5-c]pyfidine-2-caiboxamido)-2-methyl-[1,1′-biphenyl]-3-yl)caibamoyl)-1-methyl-1,4,6,7-tetrahydro-5H-imidazo[4,5-c]pyridin-5-yl)methyl)cyclohexane-1-carboxylic acid], the results for the half-inhibitory concentration (IC50) in assay [1], in assay [3] and in assay [4] were under 10 nM, under 10 nM and under 100 nM, respectively. Besides, the EC50 in assay [2] was under 100 nM.
As for `Cc1c(Nc2nc(C(F)F)nc3cc(CN4CC[C@@H](O)C4)cnc23)cccc1-c1cccc(-c2nc3cc(CN4CC[C@@](C)(C(=O)O)C4)cc(C#N)c3o2)c1C` [Compound 26, (R)-1-((7-cyano-2-(3′-(2-(difluoromethyl)-7-(((R)-3-hydroxypyrrolidin-1-yl)methyl)pyrido[3,2-d]pyrimidin-4-ylamino)-2,2′-dimethylbipheiryl-3-yl)benzo[d]oxazol-5-yl)methyl)-3-methylpyrrolidine-3-carboxylic acid], the values for the IC50 in assay [1] and in assay [4] were under 10 nM and under 100 nM, respectively. Besides, in assay [2], the EC50 is under 100 nM.

Values taken from patent publication US20230149409A1, “TREATMENT OF HUMAN PAPILLOMAVIRUS-ASSOCIATED CANCERS BY PD-L1 INHIBITORS” (priority 2021, published 2023).
